Details: Liquid, Drop volume

CCCCCCCCCCCCCCCC [hexadecane] + O=C=O
interfacial tension [mN/m]
Details | 313.15 K | 333.15 K | 353.15 K | 373.15 K | 393.15 K
340 kPa | 22.39 | 20.59 | 19.15 | 17.84 | 16.46
690 kPa | 21.67 | 20.1 | 18.65 | 17.27 | 16.12
1030 kPa | 20.89 | 19.32 | 18.15 | 16.85 | 15.79
1380 kPa | 20.29 | 18.89 | 17.69 | 16.47 | 15.54
1720 kPa | 19.42 | 18.21 | 17.21 | 15.99 | 15.11
2070 kPa | 18.39 | 17.8 | 16.74 | 15.67 | 14.81
2410 kPa | 17.81 | 17.01 | 16.21 | 15.29 | 14.49
2760 kPa | 17.21 | 16.38 | 15.71 | 14.94 | 14.18
3100 kPa | 16.29 | 15.94 | 15.31 | 14.48 | 13.77
3450 kPa | 15.49 | 15.36 | 14.82 | 14.21 | 13.52
3800 kPa | 14.85 | 14.8 | 14.37 | 13.89 | 13.2
4140 kPa | 13.94 | 14.23 | 13.88 | 13.49 | 12.84
4480 kPa | 13.36 | 13.77 | 13.31 | 13 | 12.59
4830 kPa | 12.38 | 12.89 | 12.89 | 12.58 | 12.3
5170 kPa | 11.9 | 12.49 | 12.44 | 12.15 | 12.06
5510 kPa | 11.18 | 11.68 | 11.81 | 11.89 | 11.63
5860 kPa | 10.46 | 11.11 | 11.48 | 11.47 | 11.41
6200 kPa | 9.57 | 10.36 | 11.15 | 11.11 | 11.18
6550 kPa | 8.63 | 9.68 | 10.74 | 10.79 | 10.81
6890 kPa | 7.78 | 9.16 | 10.05 | 10.28 | 10.56
7240 kPa | 7.22 | 8.82 | 9.74 | 9.9 | 10.19
7580 kPa | 6.26 | 8.16 | 9.44 | 9.57 | 9.82
7930 kPa | 5.48 | 7.52 | 8.98 | 9.35 | 9.52
8270 kPa | 4.79 | 6.86 | 8.35 | 8.84 | 9.23
8620 kPa | 4.24 | 6.32 | 7.67 | 8.27 | 8.84
8960 kPa | 3.49 | 5.81 | 7.42 | 7.87 | 8.58
9310 kPa | 2.7 | 5.19 | 6.95 | 7.65 | 8.16
9650 kPa | – | 4.57 | 6.06 | 7.15 | 7.92
10000 kPa | – | 4 | 5.78 | 6.74 | 7.61
10340 kPa | – | 3.45 | 5.11 | 6.41 | 7.27
10690 kPa | – | 2.94 | 4.84 | 6.16 | 6.99
11030 kPa | – | 2.38 | 4.48 | 5.64 | 6.75
11380 kPa | – | – | 4.04 | 5.28 | 6.42

CCCCCCC [heptane] + O=C=O
interfacial tension [mN/m]
Details | 313.15 K | 333.15 K | 353.15 K | 373.15 K | 393.15 K
340 kPa | 16.27 | 14.24 | 12.36 | 11 | 9.62
690 kPa | 15.56 | 13.68 | 11.92 | 10.64 | 9.29
1030 kPa | 14.88 | 13.1 | 11.46 | 10.29 | 8.99
1380 kPa | 14.23 | 12.54 | 10.99 | 9.87 | 8.73
1720 kPa | 13.42 | 12 | 10.6 | 9.54 | 8.45
2070 kPa | 12.71 | 11.38 | 10.13 | 9.27 | 8.23
2410 kPa | 12.05 | 10.8 | 9.78 | 8.84 | 7.93
2760 kPa | 11.17 | 10.2 | 9.24 | 8.45 | 7.63
3100 kPa | 10.54 | 9.62 | 8.71 | 8.1 | 7.32
3450 kPa | 9.76 | 8.92 | 8.19 | 7.67 | 7.1
3800 kPa | 9.04 | 8.32 | 7.86 | 7.35 | 6.84
4140 kPa | 8.36 | 7.76 | 7.34 | 7 | 6.61
4480 kPa | 7.47 | 7.23 | 6.95 | 6.68 | 6.25
4830 kPa | 6.74 | 6.66 | 6.5 | 6.35 | 6
5170 kPa | 5.87 | 6.1 | 6.11 | 5.95 | 5.74
5510 kPa | 5.1 | 5.58 | 5.83 | 5.68 | 5.44
5860 kPa | 4.23 | 5.11 | 5.46 | 5.41 | 5.24
6200 kPa | 3.59 | 4.61 | 4.95 | 5.08 | 4.96
6550 kPa | 3.07 | 4.04 | 4.41 | 4.69 | 4.68
6890 kPa | 2.39 | 3.52 | 4.01 | 4.38 | 4.37
7240 kPa | – | 3.02 | 3.61 | 3.94 | 4.1
7580 kPa | – | 2.4 | 3.22 | 3.67 | 3.81
